Measured values: patent US20220313626A1, “SMALL MOLECULE INHIBITORS FOR TREATING CANCER IN A SUBJECT HAVING TUMORS WITH HIGH INTERSTITIAL PRESSURE” (GUANGZHOU MAXINOVEL PHARMACEUTICALS CO., LTD., priority 2019, published 2022)

Key:
MC-38-hPD-L1 tumor cells = assay: Anti-tumor efficacy in MC-38-hPD-L1 models; format: in vivo; conditions: for TGI / Tumor Volume: MC-38-hPD-L1, C57BL/6-hPD-1 mice, BID, 19 days
Description: Materials required for the experiment: Antibody: PD-L1 antibody Durvalumab, Product specifications: 120 mg/2.4 mL(50 mg/mL), Lot No.: 041E17C, Manufacture: AstraZeneca, purchased from Hongkong Mingchuang Medical Limited, storage at 2-8° C. Experimental animal: 120 C57BL/6-hPD-1 mice, female, 6˜8 weeks old, 18˜21 g, purchased from Jiangsu Gem Pharmatech Co. Ltd. Formulation material: castor oil (Cremophor RH40), CAS No.: 61788-85-0, Lot No.: 29761847G0, purchased from Shanghai Xietai Chemical Co. Ltd.; β-cyclodextrin (SBE-β-CD), CAS No.: 128446-35-5, Lot No.: R1804474, purchased from Shanghai Shaoyuan Chemical Co. Ltd.; DMEM culture medium, CAS No.: 11995-065, Lot No.: 2025378, purchased from Gibco Co. Ltd.; PBS, Art. No.: SH30256.01, Lot No.: AB10141338, purchased from HyClone Co. Ltd.; Fetal bovine serum: CAS No.: 10099-141, Lot No.: 1966174C, purchased from Gibco Co. Ltd.; hygromycinB: CAS No.: 10687010, Lot No.: HY069-L12 purchased from Invitrogen.
Cell culture: The MC-38 tumor cells (NCI) were maintained in vitro as a monolayer culture in DMEM medium supplemented with 10% heat inactivated fetal bovine serum, 100 μg/mL hygromycinB at 37° C. in an atmosphere of 5% CO2 in air. The tumor cells were routinely subcultured three times weekly by trypsin-EDTA treatment. The cells growing to a confluency around 70%-80% were harvested and counted for tumor inoculation.
Tumor cell inoculation and group administration: The 100 uL cell suspension containing 1×10^6 MC-38-hPD-L1 tumor cells (cells suspended in base DMEM medium) was inoculated into right dorsal subcutaneous area in mice. 6 days after inoculation, 60 tumor-bearing mice with transplanted tumors ranging from 31.49 mm^3 to 110.26 mm^3 were selected, stratified randomization was used to group and start the administration on the day of grouping.
Preparation of test substances: Preparation of formulation: 800 mL of sterile water was added into the volumetric flask with magnetic stirring to have a vortex. 100 g of castor oil (Cremophor RH40) was added with a spoon slowly into the vortex and the solution was kept stirring. 200 g of β-cyclodextrin (SBE-β-CD) was added while the solution was kept stirring until the solution was clear, and the total volume was set to 1000 mL, which contained 10% (w/v) Cremophor RH40+20% (w/v) an aqueous solution of SBE-β-CD.
Preparation of Compound Suspension: 150.92 mg compound was weighed and 12.5 mL 10% (w/v) Cremophor RH40+20% (w/v) SBE-β-CD aqueous solution were added. The suspension solution with a concentration of 12.0 mg/mL was obtained by vortex for 2 minutes and ultrasound for 30 minutes. 5.0 mL of the compound suspension solution with concentration of 12.0 mg/mL was pipetted and 5.0 mL aqueous formulation solution was added. The suspension solution with a concentration of 6.0 mg/mL was obtained by vortex for 1 minute and sonicated by ultrasound for 5 minutes. 2.0 mL of the compound suspension solution with concentration of 6.0 mg/mL was pipetted and […] was added. The suspension solution with a concentration of 3.0 mg/mL was obtained by vortex for 1 minute and sonicated by ultrasound for 5 minutes. Compound suspension solution was prepared once a day.
Preparation of hPD-L1 antibody: 0.12 mL PD-L1 antibody Durvalumab (50 mg/mL) original solution was pipetted and divided into […] in 5 mL sterile centrifugal tube, which were packed with each containing 6.0 mg. They were stored in refrigerator at 4° C. Before administration, a raw solution containing 0.12 mL and 50 mg/mL was taken, and 2.88 mL 0.9% sodium chloride solution was added to make the solution thoroughly mixed. 3 mL Duvalumab solution with the concentration 2 mg/mL was obtained.
Procedure: The mice in the vehicle group were weighed and recorded in the electronic balance according to their numbers. […]

[1] = test system: PD-L1 suppressed human T-cells; assay: Activation of T-Cell Suppressed by PD-L1 (IFN-g readout); format: cell-based; conditions: human T cells co-cultured with Hep3B cells transfected with human PD-L1; dose dependent; Keytruda positive control
Description: To measure the cellular activity of the compound, a protocol of Activation of T-Cell Suppressed by PD-L1 was used. In this protocol, human Hep3B cells were stably transfected with human PD-L1. The human T cells containing PD-1 were inactivated by co-culturing with these PD-L1 transfected cells. Then anti-PD-1 antibody Keytruda® was selected as the reference to profile the compound for its activation of PD-L1 suppressed human T-cells.

Cc1c(/C=C/c2cc(CN[C@@](C)(CO)C(=O)O)ccc2C(F)(F)F)cccc1-c1ccccc1 [Compound]
tolerability (adverse reactions) (MC-38-hPD-L1 tumor cells; C57BL/6-hPD-1 mice, PO, BID up to 120 mg/kg): well tolerated
TGI (MC-38-hPD-L1 tumor cells; 30 mg/kg, PO): 24.95%
Tumor Volume (MC-38-hPD-L1 tumor cells; 30 mg/kg, PO): 459.82 ± 58.24 mm^3
TGI (MC-38-hPD-L1 tumor cells; 60 mg/kg, PO): 29.06%
Tumor Volume (MC-38-hPD-L1 tumor cells; 60 mg/kg, PO): 439.04 ± 51.23 mm^3
TGI (MC-38-hPD-L1 tumor cells; 120 mg/kg, PO): 51.21%
Tumor Volume (MC-38-hPD-L1 tumor cells; 120 mg/kg, PO): 325.23 ± 38.59 mm^3
growth of subcutaneous MC-38-hPD-L1 tumors in mice (MC-38-hPD-L1 tumor cells; MC-38-hPD-L1 model, C57BL/6-hPD-1 mice): significantly inhibit the growth
activation of PD-L1 suppressed human T cell, indicated by increase of cytokine IFN-g [1]: effectively restored the activation
